Source: patent publication US4423056A, “5(Aminomethyl)-4,5,6,7-tetrahydro[d]thiazole containing compositions for and medical use in treating circulatory insufficiencies” (Laboratoires Jacques Logeais, priority 1979, dated 1983)
Like-named read-outs stand apart in the source and are kept apart here.

Columns and labels:
[1] = Acute toxicity in mice, LD50 oral and intraperitoneal; details: mouse, in vivo
Text: Most of the compounds of the formula (I) have low toxicity, as is apparent from following Table II in which are given the LD50 per os and i.p. in mice.

collateral arteries = experiment: Acute occlusion of the femoral artery: resistance of the collateral arteries, systemic blood pressure, tissue perfusion pressure; type: in vivo, dogs
Experimental: Thus, with some of the compounds, there was noted an increase of the arterial rate of flow from as low a dosage as 0.1-0.5 mg/kg i.v.

[2] = ip, read-out: Acute toxicity, intraperitoneal route LD50
[3] = po, per os, read-out: Acute toxicity, oral route LD50

| SMILES | LD50 [1, 2] | LD50 [1, 3] | decrease of the resistance of the collateral arteries (collateral arteries) | effect on systemic blood pressure (collateral arteries) | effect on tissue perfusion pressure (collateral arteries) |
| --- | --- | --- | --- | --- | --- |
| NCC1CCCc2scnc21 (stereo not drawn) [Example 1, 4-Aminomethyl-4,5,6,7-tetrahydro-benzo[d]thiazole] | 140 mg/kg | > 200 mg/kg | – | – | – |
| CNCC1CCCc2scnc21 (stereo not drawn) [Example 2, 4-(N-Methylaminomethyl)-4,5,6,7-tetrahydro-benzo[d]thiazole] | ≥ 200 mg/kg | > 200 mg/kg | – | – | – |
| Cc1nc2c(s1)CCCC2CN (stereo not drawn) [Example 3, 2-Methyl-4-aminomethyl-4,5,6,7-tetrahydro-benzo[d]thiazole] | – | > 200 mg/kg | – | – | – |
| CNCC1CCc2scnc2C1 (stereo not drawn) [Example 5, 5-(N-Methylaminomethyl)-4,5,6,7-tetrahydro-benzo[d]thiazole] | > 200 mg/kg | > 200 mg/kg | – | – | – |
| CNCC1CCc2sc(C)nc2C1 (stereo not drawn) [Example 6, 2-Methyl-5-(N-methylaminomethyl)-4,5,6,7-tetrahydrobenzo[d]thiazole] | – | > 200 mg/kg | marked decrease | without substantially affecting | without substantially affecting |
| CNCC1CCc2nc(C)sc2C1 (stereo not drawn) [Example 7, 2-Methyl-6-(N-methylaminomethyl)-4,5,6,7-tetrahydrobenzo[d]thiazole] | > 200 mg/kg | > 200 mg/kg | – | – | – |
| NCC1CCc2ncsc2C1 (stereo not drawn) [Example 8, 6-Aminomethyl-4,5,6,7-tetrahydro-benzo[d]thiazole] | > 200 mg/kg | > 200 mg/kg | – | – | – |
| CCNCC1CCc2nc(CC)sc2C1 (stereo not drawn) [Example 9, 2-Ethyl-6-(N-ethylaminomethyl)-4,5,6,7-tetrahydrobenzo[d]thiazole] | 120 mg/kg | > 200 mg/kg | – | – | – |
| CCCNCC1CCc2ncsc2C1 (stereo not drawn) [Example 10, 6-(N-n-Propylaminomethyl)-4,5,6,7-tetrahydro-benzo[d]thiazole] | 190 mg/kg | > 200 mg/kg | – | – | – |
| CCCCc1nc2c(s1)CCCC2CNC (stereo not drawn) [Example 11, 2-n-Butyl-4-(N-methylaminomethyl)4,5,6,7-tetrahydro-benzo[d]thiazole] | 58 mg/kg | ≥ 200 mg/kg | marked decrease | without substantially affecting | without substantially affecting |
| CCCCc1nc2c(s1)CCC(CNC)C2 (stereo not drawn) [Example 12, 2-n-Butyl-5-(N-methylaminomethyl)-4,5,6,7-tetrahydrobenzo[d]thiazole] | 140 mg/kg | > 200 mg/kg | – | – | – |
| CNCC1CCc2sc(C(C)C)nc2C1 (stereo not drawn) [Example 13, 2-Isopropyl-5-(N-methylaminomethyl)-4,5,6,7-tetrahydrobenzo[d]thiazole] | 140 mg/kg | > 200 mg/kg | – | – | – |
| NCC1CCc2scnc2C1 (stereo not drawn) [Example 14, 5-aminomethyl-4,5,6,7-tetrahydro-benzo[d]thiazole] | > 200 mg/kg | ≥ 200 mg/kg | – | – | – |
| Cc1nc2c(s1)CCC(CN)C2 (stereo not drawn) [Example 15, 2-methyl-5-aminomethyl-4,5,6,7-tetrahydro-benzo[d]thiazole] | > 200 mg/kg | > 200 mg/kg | – | – | – |
| CNCC1CCc2ncsc2C1 (stereo not drawn) [Example 16, 6-(N--methylaminomethyl)-4,5,6,7-tetrahydro-benzo[d]thiazole] | 75 mg/kg | 170 mg/kg | – | – | – |
| Cc1nc2c(s1)CC(CN)CC2 (stereo not drawn) [Example 17, 2-methyl-6-aminomethyl-4,5,6,7-tetrahydro-benzo[d]thiazole] | > 200 mg/kg | > 200 mg/kg | – | – | – |
| CCCCNCC1CCCc2sc(C)nc21 (stereo not drawn) [Example 18, 2-methyl-4-(N--n-butylamino-methyl)-4,5,6,7-tetrahydro-benzo[d]thiazole] | 58 mg/kg | > 200 mg/kg | – | – | – |
| Cc1nc2c(s1)CCC(CNC(C)C)C2 (stereo not drawn) [Example 19, 2-methyl-5-(N--isopropylamino-methyl)-4,5,6,7-tetrahydro-benzo[d]thiazole] | > 200 mg/kg | > 200 mg/kg | – | – | – |
| CCCCNCC1CCc2sc(C)nc2C1 (stereo not drawn) [Example 20] | 58 mg/kg | 145 mg/kg | – | – | – |
